How the values were obtained:
[1] = test system: 37G2; test: Hydrolysis of reactant ligands by receptor 37G2; format: biochemical, mouse; set-up: key to hydrolysis by 37G2, symbol: --: No hydrolysis observed; conditions: pH 8.0; for hydrolysis by 37G2, symbol: 19: 2/5 uM, 21: 5/10 uM receptor/ligand
Procedure: (§1) ^1 Preliminary initial hydrolyses shown as the percentage of admixed
(§2) reactant ligand consumed for catalyzed and spontaneous hydrolyses. "--" =
(§3) No hydrolysis observed. "NT" = Not tried. All reactions were carried out
(§4) at pH 8.0 in a 50 mM phosphate buffer unless otherwise noted. Hydrolytic
(§5) percentages were determined by HPLC using a Hitachi model 655A12 liquid
(§6) chromatograph with a C18 Vydac 201TP54 column, except as noted below.
(§7) Mixtures of acetonitrile a nd water containing 0.1 percent trichloroaceti
(§8) acid [28:72-50:50 (v/v)] were used as elutant. Hydrolyses of Compounds 5
(§9) and 20 were assayed using fluorescence data.
(§10) ^2 Concentrations of receptor molecules (Rec.) and reactant ligands
(§11) (Lig.) in micromolar units, presuming a molecular weight of 150,000
(§12) daltons for each receptor molecule.
(§13) ^3 Reactant ligand (Lig.) used as substrate.
(§14) ^4 Time in hours that the reaction was permitted to take place.
(§15) ^5 Spontaneous hydrolytic percentages for the time period indicated.
(§16) ^6 Reaction carried out at pH 7.2 in a 50 mM phosphate buffer.

[2] = test system: 44A2; test: Hydrolysis of reactant ligands by receptor 44A2; format: biochemical, mouse; set-up: key to hydrolysis by 44A2, symbol: --: No hydrolysis observed; conditions: pH 8.0; for hydrolysis by 44A2, symbol: 19: 2/5 uM, 21: 5/10 uM receptor/ligand
Procedure: as §1, §2, §3, §4, §5, §6, §7, §8, §9, §10, §11, §12, §13, §14, §15, §16

[3] = test system: 1209; test: Hydrolysis of reactant ligands by receptor 12C9 (column head prints 1209); format: biochemical, mouse; set-up: key to hydrolysis by 1209, symbol: --: No hydrolysis observed; conditions: pH 8.0; for hydrolysis by 1209, symbol: 19: 2/5 uM, 21: 5/10 uM receptor/ligand
Procedure: as §1, §2, §3, §4, §5, §6, §7, §8, §9, §10, §11, §12, §13, §14, §15, §16

[4] = Spontaneous (uncatalyzed, background) hydrolysis; format: physicochemical; set-up: key to Spon. (spontaneous hydrolysis), symbol: --: No hydrolysis observed; conditions: for Spon. (spontaneous hydrolysis), symbol: pH 8.0
Procedure: The practical range of pH for the assay is limited by the rapid spontaneous rate of hydrolysis of an ester Compound 5 above pH 8.0. Initially, the ester was used at a concentration that was about four-fold greater than that of the protein, and the mixture was incubated at pH 7.2 for 10 minutes. Any change in fluorescence above background was noted.
The lack of spectroscopic distinction between such esters and their hydrolysis products recommended a chromatographic analysis of the process. Referring to FIG. 3, a mixture of Compound 7 (5 uM) and the monoclonal antibody from hybridoma P3 6D4 (0.1 uM) in phosphate buffer (50 mM, pH 8.0) was analyzed over time by high performance liquid chromatography (HPLC). The accelerated hydrolysis of the ester was apparent from the decrease of its peak and the concurrent increase in two new peaks that correspond with the expected products. Under these conditions, the ester is completely consumed in 60-80 minutes during which time the background rate accounts for about 12 to 16 percent hydrolysis. The chromatographic profile is the same as that produced by treatment with hog liver esterase.
^c The rate constants were determined spectrophotometrically (at 245
nm) by measuring initial rates at five concentrations of ester.
as §1, §2, §3, §4, §5, §6, §7, §8, §9, §15
(§17) Reaction kinetics were studied using three reactant ligands as substrates for monoclonal receptors 37G2 and 22F5. Data from initial rates were consistent with Michaelis-Menten reaction mechanism for a usual enzyme-substrate system. Initial rates were followed using at 271 nm using a U.V.-visible spectorphotometer for Compound 17, and a fluorescence spectrometer for Compounds 5 and 20, using an excitation wavelength of 355 nm and an emission wavelength of 455 nm for both compounds.

[5] = test system: 22F5; test: Hydrolysis of reactant ligands by receptor 22F5; format: biochemical, mouse; set-up: key to hydrolysis by 22F5, symbol: --: No hydrolysis observed; conditions: pH 8.0; for hydrolysis by 22F5, symbol: 19: 2/5 uM, 21: 5/10 uM receptor/ligand
Procedure: as §1, §2, §3, §4, §5, §6, §7, §8, §9, §10, §11, §12, §13, §14, §15, §16

[6] = test system: 7E5; test: Hydrolysis of reactant ligands by receptor 7E5; format: biochemical, mouse; set-up: key to hydrolysis by 7E5, symbol: --: No hydrolysis observed; conditions: pH 8.0; for hydrolysis by 7E5, symbol: 19: 2/5 uM, 21: 5/10 uM receptor/ligand
Procedure: as §1, §2, §3, §4, §5, §6, §7, §8, §9, §10, §11, §12, §13, §14, §15, §16

[7] = test system: 17G8; test: Hydrolysis of reactant ligands by receptor 17G8; format: biochemical, mouse; set-up: key to hydrolysis by 17G8, symbol: --: No hydrolysis observed; conditions: pH 8.0; for hydrolysis by 17G8, symbol: 19: 2/5 uM, 21: 5/10 uM receptor/ligand
Procedure: as §1, §2, §3, §4, §5, §6, §7, §8, §9, §10, §11, §12, §13, §14, §15, §16

[8] = test system: eight monoclonal receptors 21G2, 7E5, 37G2, 13E10, 12C9, 44A2, 17G8 and 22F5; test: Catalyzed hydrolysis of reactant ligands by the eight QPN1 monoclonal receptors, summary; format: biochemical, mouse; conditions: pH 8.0
Procedure: Mice were hyperimmunized with the Compound 13-KLH conjugate over a three to four week time period. Sera were assayed in an ELISA using a Compound 13-BSA conjugate bound to microtiter plate wells as the solid-phase antigen. Cloned hybridomas were also screened using that ELISA assay.
Each of those catalyses could be inhibited by an appropriate analog-ligand. Thus, a relatively high percentage of induced monoclonal receptors was capable of catalyzing an esterolytic reaction. The reason for this relatively high percentage of useful receptors being induced is unknown, but could be due to the presence of phosphonamidate group nitrogen atom, as compared to a phosphonate oxygen atom, or to the quinoline nucleus of the analog-ligand. Those eight catalytic monoclonal receptors and the hybridomas that secrete them are identified by the laboratory designations "QPN1 7E5", "QPN1 12C9", "QPN1 13E10", "QPN1 17G8", "QPN1 21G2", "QPN1 22F5", "QPN1 37G2" and QPN1 44A2. The prefix "QPNI" is sometimes omitted herein when discussing these hybridomas and receptors.
Amide cleavage for Compounds 14 and 15 was assayed by analyzing for the production of free aminoquinaldine or aminonaphthalene by measuring the increase in the azo dye that results from derivatizing the free aminoquinaldine or aminonapthalene with a diazotization reagent.
Catalysis reactions were conducted by preparing a reaction admixture of 100 microliters (ul) total volume containing 5 micromolar (uM) monoclonal antibody, 50-75 uM amide reactant ligand substrate and a buffer described hereinafter. The buffer included in the above admixture varied depending upon the pH utilized as follows: pH 5, 10 […] sodium acetate, 10 mM sodium chloride; pH 7.2, 10 mM sodium phosphate, 0.15 molar (M) sodium chloride; pH 8.0; 50 mM sodium phosphate. The amide-containing substrates screened in this assay were added to the above admixture in 1 ul of a 100-fold concentrated stock solution of dimethyl formamide (DMF). Monoclonal antibody was added to the above admixture from a concentrated stock solution. The resulting admixture was placed into the well of a 96 well flat bottom microtiter plate (Costar, Cambridge, Mass.) and maintained in a moist vapor environment chamber at 23 degrees C. The production of aminoquinaldine or aminonaphthalene was then assayed as described below after 2,3,5, or 6 days.
The aminoquinaldine or aminonapthalene product produced by the catalyzed reaction was measured by first admixing 20 ul of 5M HCl, 80 ul acetone and 10 ul 0.5% (w/v) sodium nitrite to the reaction admixture to form a second admixture and maintaining that second admixture for 3 minutes at room temperature. Thereafter, 10 ul 2.5% (w/v) ammonium sulfamate was added to form a third admixture that was maintained for 2 minutes at room temperature. A still further 10 ul of 0.5% (w/v) N-(1-napthyl)ethylenediamine dihydrochloride was added to form a fourth admixture that was then maintained for 15 minutes at room temperature. Thereafter the resulting azo dye present in the fourth admixture was measured by absorbance spectroscopy at 540 nanometers (nm) for aminoquinaldine using a Model EL 309 Automated Microplate Reader (Bio-Tek Instruments, Winooski, Vt.).

[9] = test system: 13E10; test: Hydrolysis of reactant ligands by receptor 13E10; format: biochemical, mouse; set-up: key to hydrolysis by 13E10, symbol: --: No hydrolysis observed; conditions: pH 8.0; for hydrolysis by 13E10, symbol: 19: 2/5 uM, 21: 5/10 uM receptor/ligand
Procedure: as §1, §2, §3, §4, §5, §6, §7, §8, §9, §10, §11, §12, §13, §14, §15, §16

[10] = test system: 21G2; test: Hydrolysis of reactant ligands by receptor 21G2; format: biochemical, mouse; set-up: key to hydrolysis by 21G2, symbol: --: No hydrolysis observed; conditions: pH 8.0; for hydrolysis by 21G2, symbol: 19: 2/5 uM, 21: 5/10 uM receptor/ligand
Procedure: as §1, §2, §3, §4, §5, §6, §7, §8, §9, §10, §11, §12, §13, §14, §15, §16

[11] = test system: Monoclonal Receptor 22F5; test: Kinetics of hydrolysis by receptor 22F5; format: biochemical, mouse
Text: as §17
Lineweaver-Burke plots for the catalyzed hydrolysis of Compounds 17, 5 and 20 obtained in the presence and absence of Compound 12i as inhibitor were prepared as discussed for FIG. 4. In particular, Compound 17 was present at concentrations of 1-16 uM with inhibitor concentrations of 100 and 300 nanomolar (nM). Compound 5 was present at concentrations of 1-10 uM with inhibitor concentrations of 100 and 200 nM. Compound 20 was present at concentrations of 2-20 uM with inhibitor concentrations of 25 and 100 nM.
*Fluorescence assays using Compounds 20 and 5 were carried out in a
PerkinElmer fluorescence spectrophotometer (moded LS5; Oakbrook, IL) usin
200 nanomolar receptor (based on a molecular weight of 150,000 daltons) i
50 mM phosphate buffer at a pH value of 8.0. The reactant ligand was
dissolved in dioxane and admixed in the amounts discussed above. Two
milliliters of reaction solution were utilized as was a dioxane
concentration of 2 percent by volume. […]

[12] = receptor/ligand uM, time h: 17 1/10, 2, 18 2/10, 24, 20 2/10, 0.33, 5 1/5, 0.33, 22 5/10, 3.5, preliminary

Row | hydrolysis by 37G2, symbol [1] | hydrolysis by 44A2, symbol [2] | hydrolysis by 1209, symbol [3] | hydrolysis by 22F5, symbol [5] | hydrolysis by 7E5, symbol [6] | hydrolysis by 17G8, symbol [7] | receptors (of eight) that catalyzed hydrolysis of the compound [8] | hydrolysis by 13E10, symbol [9] | hydrolysis by 21G2, symbol [10] | Structure (SMILES) | Spon. (spontaneous hydrolysis), symbol [4] | other results
1 | -- | -- | -- | -- | -- | -- | none of the receptors | -- | -- | COC(=O)Cc1ccc(NC(C)=O)cc1 [Compound 19] | -- | 
2 |  |  |  |  |  |  | Only those same five receptors |  |  | CC(=O)Nc1ccc(CC(=O)Oc2ccc3c(C)cc(=O)oc3c2)cc1 [Compound 20] |  | hydrolysis by 37G2 [1, 12]: 39 percentage of reactant ligand; hydrolysis by 44A2 [2, 12]: 33 percentage of reactant ligand; Km ([11]; 50 mM phosphate pH 8.0, 200 nM receptor, 2% dioxane, figure = Km × 10^6): 5 µM; kcat ([11]; pH 8.0): 0.023 s⁻¹; Vmax ([11]; pH 8.0, 200 nM receptor, figure = Vmax × 10^9): 0.27 µM/min; hydrolysis by 1209 [3, 12]: 16 percentage of reactant ligand; Spon. (spontaneous hydrolysis) ([4]; pH 8.0, 50 mM phosphate, time (h): 17 2, 18 24, 20 0.33, 5 0.33, 22 3.5): 14 percentage of reactant ligand; hydrolysis by 22F5 [5, 12]: 48 percentage of reactant ligand; hydrolysis by 7E5 [6, 12]: 15 percentage of reactant ligand; hydrolysis by 17G8 ([7]; receptor/ligand uM, time h: 18 2/10, 24, 20 2/10, 0.33, 5 1/5, 0.33, 22 5/10, 3.5, preliminary): 20 percentage of reactant ligand; hydrolysis by 13E10 [9, 12]: 16 percentage of reactant ligand; hydrolysis by 21G2 [10, 12]: 36 percentage of reactant ligand
3 | -- | -- | -- | -- | -- | -- | lack of hydrolysis | -- | -- | CC(=O)Nc1ccc(CC(=O)Oc2ccccc2NC(C)=O)cc1 [Compound 21] | -- | 

Reference: US5126258A (priority 1988, dated 1992)
